# Experimental data as given in ChEMBL document CHEMBL2202954, “The effect of PLC-γ2 inhibitors on the growth of human tumour cells” (2012).
# Legend:
# Type in all cases: functional
# EKVX = assay: Cytotoxicity against human EKVX cells assessed as cellular growth at 10 uM by SRB assay
# SK-OV-3 = assay: Cytotoxicity against human SKOV3 cells assessed as cellular growth at 10 uM by SRB assay
# TK-10 = assay: Cytotoxicity against human TK10 cells assessed as cellular growth at 10 uM by SRB assay
# RPMI-8226 = assay: Cytotoxicity against human RPMI8226 cells assessed as cellular growth at 10 uM by SRB assay
# HCC 2998 = assay: Cytotoxicity against human HCC2998 cells assessed as cellular growth at 10 uM by SRB assay
# 786-0 = assay: Cytotoxicity against human 786-0 cells assessed as cellular growth at 10 uM by SRB assay
# SK-MEL-5 = assay: Cytotoxicity against human SK-MEL-5 cells assessed as cellular growth at 10 uM by SRB assay
# NCI-H226 = assay: Cytotoxicity against human NCI-H226 cells assessed as cellular growth at 10 uM by SRB assay
# MDA-MB-435 = assay: Cytotoxicity against human MDA-MB-435 cells assessed as cellular growth at 10 uM by SRB assay
# UACC-257 = assay: Cytotoxicity against human UACC257 cells assessed as cellular growth at 10 uM by SRB assay
# CAKI-1 = assay: Cytotoxicity against human Caki1 cells assessed as cellular growth at 10 uM by SRB assay
# KM12 = assay: Cytotoxicity against human KM12 cells assessed as cellular growth at 10 uM by SRB assay
# NCI-H322M = assay: Cytotoxicity against human NCI-H322M cells assessed as cellular growth at 10 uM by SRB assay
# DU-145 = assay: Cytotoxicity against human DU145 cells assessed as cellular growth at 10 uM by SRB assay
# SNB-19 = assay: Cytotoxicity against human SNB19 cells assessed as cellular growth at 10 uM by SRB assay
# NCI-H23 = assay: Cytotoxicity against human NCI-H23 cells assessed as cellular growth at 10 uM by SRB assay
# SF-295 = assay: Cytotoxicity against human SF295 cells assessed as cellular growth at 10 uM by SRB assay
# SK-MEL-28 = assay: Cytotoxicity against human SK-MEL-28 cells assessed as cellular growth at 10 uM by SRB assay
# SF-268 = assay: Cytotoxicity against human SF268 cells assessed as cellular growth at 10 uM by SRB assay
# MCF7 = assay: Cytotoxicity against human MCF7 cells assessed as cellular growth at 10 uM by SRB assay
# SF-539 = assay: Cytotoxicity against human SF539 cells assessed as cellular growth at 10 uM by SRB assay
# NCI-H460 = assay: Cytotoxicity against human NCI-H460 cells assessed as cellular growth at 10 uM by SRB assay
# HOP-62 = assay: Cytotoxicity against human HOP62 cells assessed as cellular growth at 10 uM by SRB assay
# SW-620 = assay: Cytotoxicity against human SW620 cells assessed as cellular growth at 10 uM by SRB assay
# ACHN = assay: Cytotoxicity against human ACHN cells assessed as cellular growth at 10 uM by SRB assay
# T47D = assay: Cytotoxicity against human T47D cells assessed as cellular growth at 10 uM by SRB assay
# CCRF-CEM = assay: Cytotoxicity against human CCRF-CEM cells assessed as cellular growth at 10 uM by SRB assay
# SN12C = assay: Cytotoxicity against human SN12C cells assessed as cellular growth at 10 uM by SRB assay
# BT-549 = assay: Cytotoxicity against human BT549 cells assessed as cellular growth at 10 uM by SRB assay
# SNB-75 = assay: Cytotoxicity against human SNB75 cells assessed as cellular growth at 10 uM by SRB assay
# SR = assay: Cytotoxicity against human SR cells assessed as cellular growth at 10 uM by SRB assay
# HOP-92 = assay: Cytotoxicity against human HOP92 cells assessed as cellular growth at 10 uM by SRB assay
# PC-3 = assay: Cytotoxicity against human PC3 cells assessed as cellular growth at 10 uM by SRB assay
# M14 = assay: Cytotoxicity against human M14 cells assessed as cellular growth at 10 uM by SRB assay
# NCI-H522 = assay: Cytotoxicity against human NCI-H522 cells assessed as cellular growth at 10 uM by SRB assay
# A549 = assay: Cytotoxicity against human A549 cells assessed as cellular growth at 10 uM by SRB assay
# [1] = Cytotoxicity against human NCI-ADR-RES cells assessed as cellular growth at 10 uM by SRB assay
# MDA-MB-231 = assay: Cytotoxicity against human MDA-MB-231 cells assessed as cellular growth at 10 uM by SRB assay
# HCT-15 = assay: Cytotoxicity against human HCT15 cells assessed as cellular growth at 10 uM by SRB assay
# UO-31 = assay: Cytotoxicity against human UO31 cells assessed as cellular growth at 10 uM by SRB assay
# HT-29 = assay: Cytotoxicity against human HT-29 cells assessed as cellular growth at 10 uM by SRB assay
# Hs-578T = assay: Cytotoxicity against human Hs578T cells assessed as cellular growth at 10 uM by SRB assay
# A498 = assay: Cytotoxicity against human A498 cells assessed as cellular growth at 10 uM by SRB assay
# SK-MEL-2 = assay: Cytotoxicity against human SK-MEL-2 cells assessed as cellular growth at 10 uM by SRB assay
# K562 = assay: Cytotoxicity against human K562 cells assessed as cellular growth at 10 uM by SRB assay
# Malme-3M = assay: Cytotoxicity against human MALME-3M cells assessed as cellular growth at 10 uM by SRB assay
# IGROV-1 = assay: Cytotoxicity against human IGROV1 cells assessed as cellular growth at 10 uM by SRB assay
# UACC-62 = assay: Cytotoxicity against human UACC62 cells assessed as cellular growth at 10 uM by SRB assay
# MDA-MB-468 = assay: Cytotoxicity against human MDA-MB-468 cells assessed as cellular growth at 10 uM by SRB assay
# OVCAR-5 = assay: Cytotoxicity against human OVCAR5 cells assessed as cellular growth at 10 uM by SRB assay
# HL-60(TB) = assay: Cytotoxicity against human HL-60(TB) cells assessed as cellular growth at 10 uM by SRB assay
# MOLT-4 = assay: Cytotoxicity against human MOLT4 cells assessed as cellular growth at 10 uM by SRB assay
# U-251 = assay: Cytotoxicity against human U251 cells assessed as cellular growth at 10 uM by SRB assay
# OVCAR-3 = assay: Cytotoxicity against human OVCAR3 cells assessed as cellular growth at 10 uM by SRB assay
# COLO 205 = assay: Cytotoxicity against human COLO205 cells assessed as cellular growth at 10 uM by SRB assay
# LOX IMVI = assay: Cytotoxicity against human LOXIMVI cells assessed as cellular growth at 10 uM by SRB assay
# HCT-116 = assay: Cytotoxicity against human HCT116 cells assessed as cellular growth at 10 uM by SRB assay
# RXF 393 = assay: Cytotoxicity against human RXF393 cells assessed as cellular growth at 10 uM by SRB assay
# OVCAR-8 = assay: Cytotoxicity against human OVCAR8 cells assessed as cellular growth at 10 uM by SRB assay
compound,measurement,setting,value
CC1(C)CCc2cc(-c3ccn(S(=O)(=O)c4cccc(C(F)(F)F)c4)n3)ccc2O1,Activity,EKVX,70.44%
same,Activity,SK-OV-3,96.16%
same,Activity,TK-10,82.31%
same,Activity,RPMI-8226,68.84%
same,Activity,HCC 2998,104.44%
same,Activity,786-0,85.72%
same,Activity,SK-MEL-5,69.29%
same,Activity,NCI-H226,90.51%
same,Activity,MDA-MB-435,97.38%
same,Activity,UACC-257,81.69%
same,Activity,CAKI-1,105.83%
same,Activity,KM12,98.53%
same,Activity,NCI-H322M,106.64%
same,Activity,DU-145,98.46%
same,Activity,SNB-19,103.83%
same,Activity,NCI-H23,81.53%
same,Activity,SF-295,108.32%
same,Activity,SK-MEL-28,105.56%
same,Activity,SF-268,102.56%
same,Activity,MCF7,87.68%
same,Activity,SF-539,116.68%
same,Activity,NCI-H460,90%
same,Activity,HOP-62,102.63%
same,Activity,SW-620,88.93%
same,Activity,ACHN,109.2%
same,Activity,T47D,66.31%
same,Activity,CCRF-CEM,74.11%
same,Activity,SN12C,91.59%
same,Activity,BT-549,119.64%
same,Activity,SNB-75,102.76%
same,Activity,SR,66.68%
same,Activity,HOP-92,38.91%
same,Activity,PC-3,88.93%
same,Activity,M14,97.31%
same,Activity,NCI-H522,87.1%
same,Activity,A549,80.37%
same,Activity,[1],88.98%
same,Activity,MDA-MB-231,95.04%
same,Activity,HCT-15,89.34%
same,Activity,UO-31,97.36%
same,Activity,HT-29,71.22%
same,Activity,Hs-578T,107.85%
same,Activity,A498,94.88%
same,Activity,SK-MEL-2,107.75%
same,Activity,K562,63.16%
same,Activity,Malme-3M,102.22%
same,Activity,IGROV-1,109.7%
same,Activity,UACC-62,84.21%
same,Activity,MDA-MB-468,67.07%
same,Activity,OVCAR-5,108.57%
same,Activity,HL-60(TB),72.67%
same,Activity,MOLT-4,66.45%
same,Activity,U-251,81.96%
same,Activity,OVCAR-3,101.58%
same,Activity,COLO 205,123.8%
same,Activity,LOX IMVI,92.84%
same,Activity,HCT-116,74.24%
same,Activity,RXF 393,97.2%
same,Activity,OVCAR-8,93.92%
c1ccc(-c2nc(-c3cccs3)no2)cc1,Activity,EKVX,102.25%
same,Activity,SK-OV-3,106.03%
same,Activity,TK-10,97.25%
same,Activity,RPMI-8226,102.22%
same,Activity,HCC 2998,117.01%
same,Activity,786-0,107.03%
same,Activity,SK-MEL-5,97.58%
same,Activity,NCI-H226,91.26%
same,Activity,MDA-MB-435,113.41%
same,Activity,UACC-257,103.2%
same,Activity,CAKI-1,100.18%
same,Activity,KM12,99.88%
same,Activity,NCI-H322M,122.94%
same,Activity,DU-145,103.67%
same,Activity,SNB-19,108.69%
same,Activity,NCI-H23,93.94%
same,Activity,SF-295,128.58%
same,Activity,SK-MEL-28,117.87%
same,Activity,SF-268,105.23%
same,Activity,MCF7,52.58%
same,Activity,SF-539,105.74%
same,Activity,NCI-H460,102.91%
same,Activity,HOP-62,98.37%
same,Activity,SW-620,101.1%
same,Activity,ACHN,102.77%
same,Activity,T47D,65.5%
same,Activity,CCRF-CEM,97.84%
same,Activity,SN12C,91.08%
same,Activity,BT-549,105.93%
same,Activity,SNB-75,105.81%
same,Activity,SR,97.61%
same,Activity,HOP-92,75.75%
same,Activity,PC-3,96.07%
same,Activity,M14,111.09%
same,Activity,NCI-H522,96.9%
same,Activity,A549,106.51%
same,Activity,[1],116.69%
same,Activity,MDA-MB-231,77.5%
same,Activity,HCT-15,94.44%
same,Activity,UO-31,88.86%
same,Activity,HT-29,108.03%
same,Activity,Hs-578T,100.69%
same,Activity,A498,96.9%
same,Activity,SK-MEL-2,103.18%
same,Activity,K562,100.51%
same,Activity,Malme-3M,131.39%
same,Activity,IGROV-1,83.5%
same,Activity,UACC-62,93.02%
same,Activity,MDA-MB-468,83.74%
same,Activity,HL-60(TB),103.76%
same,Activity,MOLT-4,92.81%
same,Activity,U-251,94.72%
same,Activity,OVCAR-3,105.28%
same,Activity,COLO 205,114.24%
same,Activity,LOX IMVI,99.72%
same,Activity,HCT-116,104.23%
same,Activity,RXF 393,122.84%
same,Activity,OVCAR-8,105.37%
